{
  "source": "paper PMC10762078",
  "about": "“Role of UPF1-LIN28A interaction during early differentiation of pluripotent stem cells” (Nature Communications, 2024)",
  "key": {"[1]": {"test_system": "CHA15 cells transcriptome / NMD targets", "assay": "RNA-seq of CPP-P8/CPP-P1-treated CHA15 cells with siControl or siLIN28A (Supplementary Fig. 6e)", "assay_type": "cell-based, Homo sapiens", "protocol": "For CPP-conjugated peptide delivery, HeLa, 293T, and PA-1 cells were incubated with CPP-conjugated peptides or CPP-FITC at 2 μM in DMEM with 10% FBS for 12 h a day before cell harvest. hPSCs were treated with CPP-conjugated peptides at 10 μM in mTeSR Plus Medium, and the peptide-containing medium was changed every day over 10 days. The ROCK inhibitor (Tocris Bioscience, Y-27632) treated-hPSCs were dissociated into single cells using Accutase (Merck, SCR005) and differentiated into ectoderm, mesoderm, and endoderm using the STEMdiff Trilineage Differentiation Kit ([…] Technologies, 05230) following the manufacturer’s protocol. Differentiated cells treated with CPP-conjugated peptides were analysed at 0, 3, and 5 days for ectoderm and endoderm, and at 0, 3, and 4 days for mesoderm.\nTotal RNA concentration was calculated using Quant-IT RiboGreen (Invitrogen, R11490). To assess the integrity of the total RNA, samples were run on a TapeStation RNA screentape (Agilent). Only high-quality RNA preparations with RNA integrity number greater than 7.0 were used for the RNA library construction. A library was independently prepared with 1 μg of total RNA from each sample using the Illumina TruSeq Stranded mRNA Sample Prep Kit (Illumina, 20020594). The first step in the workflow involves purifying poly‐A-containing mRNA molecules using poly‐T‐attached magnetic beads. Following purification, mRNA was fragmented into small pieces using divalent cations at elevated temperatures. The cleaved RNA fragments were copied into first-strand cDNA using SuperScript II reverse transcriptase (Invitrogen, 18064022) and random primers. This was followed by second-strand cDNA synthesis using DNA polymerase I, RNase H, and dUTP. These cDNA fragments underwent an end repair process, adding a single ‘A’ base and ligating the adapters. The products were purified and enriched via PCR to create the final cDNA library. The libraries were quantified using the KAPA Library Quantification Kits for Illumina Sequencing platforms according to the qPCR Quantification Protocol Guide (KAPA BIOSYSTEMS, KR0405) and qualified using the TapeStation D1000 ScreenTape (Agilent). Indexed libraries were then submitted to an Illumina NovaSeq (Illumina), and Macrogen Inc. performed paired-end (2 × 100 bp) sequencing.\nWe pre-processed the raw reads from the sequencer to remove low-quality reads and adapter sequences before analysis and aligned the processed reads to Homo sapiens (GRCh37) using HISAT v2.1.0[52]. HISAT utilises two indices for alignment (a global whole-genome index and tens of thousands of small local indexes). These two types of indices are constructed using the same Burrows-Wheeler transform (BWT)/graph FM index (GFM) as Bowtie2. The reference genome sequence of Homo sapiens (GRCh37) and the annotation data were downloaded from the NCBI database. Transcript assembly was processed using StringTie v1.3.4d[53],[54]. […] Differentially expressed genes (DEGs) were analysed by ratio of FPKM or using DESeq2 with read counts. Log2 fold-change value of the NMD targets[25],[32], three germ layer markers, miRNA targets, or SDGs was converted into cumulative frequency curve using the R function, ‘ecdf’ (version 4.0.5). Gene functional classification and Gene ontology (GO) were performed using g:Profiler[56]. […]\nScale bars, 100 μm . d (Corresponding to Fig. 6d) RT -qPCR was perform ed to evaluate the level of indicated transcripts upon the indicated peptide treatm ent in CHA15 cells. e T ranscriptom e analysis was perf orm ed using signif icantly changed transcripts (p < 0.05) f rom siLIN28A or siControl in the indicated CPP-peptide treated CHA15 cells. Scatter […]\n(bottom panel), respectively. f Levels of m ature endogenous m iRNAs in CHA15 cells, which were regulated by LIN28A, were assessed using RT -qPCR. Cum ulative f raction of log2 fold change in the expression of genes regulated by let-7-5p and m iR-16- 5p was shown as CDF graphs. […]"}, "UPF1-LIN28A interaction": {"test_system": "UPF1-LIN28A interaction", "assay": "Proximity ligation assay (PLA) of UPF1-LIN28A complexes", "assay_type": "cell-based", "conditions": "LIN28A-overexpressing HeLa and CHA15 cells, n = 3", "protocol": "The in situ proximity ligation assay (PLA) was performed on fixed and permeabilised cells using Duolink In Situ Red kit mouse/rabbit (Sigma-Aldrich, DUO92101), according to the manufacturer’s protocol. Briefly, fixed and permeabilised cells were incubated with a blocking solution for 1 h at 37 °C and then incubated with the following primary antibodies: anti-UPF1 (Cell Signaling Technology, 12040; 1:200) and LIN28A (Cell Signaling Technology, 5930; 1:200) overnight at 4 °C. After incubation, the coverslips were washed twice with 1× buffer A, followed by incubation with PLA probes for 1 h at 37 °C. After washing twice with 1× buffer A for 5 min, the coverslip was incubated with the ligation solution for 30 min at 37 °C. Coverslips were washed twice with 1× buffer A, followed by an amplification step with polymerase for 100 min at 37 °C. Finally, the coverslip was washed twice with 1× buffer B and once with 0.01× buffer B and then mounted in […] with DAPI mounting medium (Vector Laboratories, H1200).\nImmunofluorescence staining, proximity ligation assay imaging, and cell-penetrating efficiency of CPP-FITC were imaged with a confocal laser scanning microscope (Leica, TSC SP5) or immunofluorescence microscope (Leica, DM5000B). Z-stacks were captured, with sections spanning the entire cell. […]"}, "[2]": {"conditions": "CHA15, absence of LIN28A (siRNA)"}},
  "data": [
    {"sequence": "KKKWCRKKKSSADEKRYRALKRTAERELLMNA [CPP-P8, CPP conjugated to P8]", "values": [
      {"measurement": "fraction deregulated in a LIN28A-independent manner", "setting": "[1]; 7 (6+1) out of 95 (42+53)", "value": 7.4, "unit": "%"},
      {"measurement": "transcripts downregulated over 2-fold", "setting": "[1]; [2]", "value": 2, "unit": "transcripts"},
      {"measurement": "transcripts upregulated over 2-fold", "setting": "[1]; [2]", "value": 12},
      {"measurement": "transcripts downregulated over 2-fold", "setting": "[1]; CHA15, presence of LIN28A", "value": 53, "unit": "transcripts"},
      {"measurement": "transcripts upregulated over 2-fold", "setting": "[1]; CHA15, presence of LIN28A", "value": 42, "unit": "transcripts"},
      {"measurement": "FEZF1-AS1 expression", "setting": "[1]; CHA15, siControl", "value": 20.4087, "unit": "FPKM"},
      {"measurement": "LHX5-AS1 expression", "setting": "[1]; CHA15, siControl", "value": 61.4319, "unit": "FPKM"},
      {"measurement": "LMO1 expression", "setting": "[1]; CHA15, siControl", "value": 15.1171, "unit": "FPKM"},
      {"measurement": "CUZD1 expression", "setting": "[1]; CHA15, siLIN28A", "value": 5.545, "unit": "FPKM"},
      {"measurement": "CXCL5 expression", "setting": "[1]; CHA15, siLIN28A", "value": 5.9, "unit": "FPKM"},
      {"measurement": "MT2A expression", "setting": "[1]; CHA15, siLIN28A", "value": 11.8304, "unit": "FPKM"},
      {"measurement": "transcriptome change in absence of LIN28A", "setting": "[1]; hESCs, siLIN28A", "value": "less impact on the transcriptome change, including NMD targets, in the absence of LIN28A"},
      {"measurement": "PLA signal of UPF1-LIN28A complexes", "setting": "UPF1-LIN28A interaction", "value": "weaker signals than CPP-P1 or -P2"}
    ]}
  ]
}
